Laboratory results published in US8410153B2, “Naphthalene isoxazoline invertebrate pest control agents” (E.I. du Pont de Nemours and Company, priority 2007, dated 2013).

Columns and labels:
Assay type in all cases: in vivo
[1] = tested on: diamondback moth (Plutella xylostella); assay: Test A: control of diamondback moth on radish plant, foliar spray; conditions: sprayed at 50 ppm, held 6 days
Summary of the method: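 Radish plants 12–14 days old, pre-infested with about 50 neonate larvae, sprayed at 50 ppm in 10% acetone/water with 300 ppm X-77 surfactant; three replicates. After 6 days at 25° C and 70% RH, feeding damage was scored visually and mortality counted.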

[2] = tested on: fall armyworm (Spodoptera frugiperda); assay: Test B: control of fall armyworm on corn (maize) plant, foliar spray; conditions: sprayed at 50 ppm
Summary of the method: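 4-5-day-old corn plants pre-infested with 10-15 1-day-old larvae on insect diet, then sprayed with compound at 50 ppm in 10% acetone/90% water with 300 ppm surfactant, three replicates. Held 6 days at 25° C, 70% RH; feeding damage assessed visually and mortality rated.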

[3] = tested on: western flower thrips (Frankliniella occidentalis); assay: Test E: control of western flower thrips on Soleil bean plant, contact and/or systemic; conditions: held 6 days
Summary of the method: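 5–7-day-old Soleil bean plants were sprayed at 250 or 50 ppm in 10% acetone/90% water with 300 ppm X-77 surfactant, three replicates. After drying 1 h, 22–27 adult thrips were added per unit. Mortality and plant damage were rated after 6 days at 25 °C and 45–55% RH.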

Measured: levels of control efficacy (20% or less feeding damage or 80% or more mortality)

CC(C)CNC(=O)CNC(=O)c1ccc(C2=NOC(c3cc(Cl)cc(Cl)c3)(C(F)(F)F)C2)c2ccccc12 (stereo not shown) [Compound 6]
very good to excellent: [1] | [2] | [3]; sprayed at 50 ppm | [3]; sprayed at 250 ppm
